According to US12565665B2, “Compositions and methods for controlled mRNA translation and stability” (TRUSTEES OF BOSTON UNIVERSITY, priority 2022, dated 2026):
pKd: −log10 of the molar value.

Key:
editable stop codons = assay: Transfection of in vitro transcribed iADAR mRNA circuits, flow cytometry (mNeonGreen positive cells); type: cell-based, human; details: 100 ng mRNA; positive = greater than top 1% of non-transfected cells; ~48 hours
Method: In this case, the dADAR and ADAR constructs serve as negative and positive controls respectively. For the BAD(V) construct, cells only express mNeonGreen if A-1331852 is present during the transfection (see e.g., FIG. 61B).
To test this, the 3′ end of the plasmid was subsequently digested using Pmel, a DNA clean-up was performed, ARCA-capped mRNA was transcribed with T7 polymerase, the remaining DNA were digested with DNAse I, and a poly-A tail was added with E. coli Poly(A) Polymerase (all reagents and protocols from NEW ENGLAND BIO's HiScribe® T7 ARCA mRNA Kit (with tailing)). 70,000 HEK293FT cells were then transfected in suspension with 100 ng of each mRNA construct using Lipofectamine™ MessengerMAX™ Transfection Reagent. Cells were also treated with either DMSO or 1 μM of A-1331852. ˜48 hours after transfection, cells were analyzed by flow cytometry. mNeonGreen positive cells were determined as greater than the top 1% of gated non-transfected HEK cells (NT).

NS3a-genotype 1b = NS3a-genotype 1b (Hepatitis C virus genotype 1b, UniProt P26662); details: disrupted by NS3a-targeting drugs; read-out: affinity of basal complex; cited from earlier work
Chain of NS3a-genotype 1b (P26662 1027-1206, looked up, change not shown, other chains not shown): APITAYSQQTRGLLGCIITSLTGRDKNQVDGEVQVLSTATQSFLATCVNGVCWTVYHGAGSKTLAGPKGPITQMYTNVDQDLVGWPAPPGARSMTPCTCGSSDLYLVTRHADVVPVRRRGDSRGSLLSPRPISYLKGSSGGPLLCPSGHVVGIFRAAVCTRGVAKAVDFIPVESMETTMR

| Substance | population of mNeonGreen positive cells (editable stop codons) | pKd (NS3a-genotype 1b) |
| --- | --- | --- |
| MCP_ADAR2-DD(E488Q)_mCherry_FLAG_P2A_T2A_loop(UAG-UAG)_MS2(C)_HaloTag_loop(UAG-UAG)_MS2(C)_P2A_T2A_HA_mNeonGreen(M10K) [ADAR mRNA] | significant population of mNeonGreen positive cells | – |
| apo NS3a reader peptide, SEQ ID NO: 261, GELDELVYLLDGPGYDPIHSD [ANR] | – | 8.00 |
| MCP_ADAR2-DD(E396A & E488Q)_mCherry_FLAG_P2A_T2A_loop(UAG-UAG)_MS2(C)_HaloTag_loop(UAG-UAG)_MS2(C)_P2A_T2A HA_mNeonGreen(M10K) [dADAR mRNA] | insignificant population | – |
